Measured values published in US8119589B2, “Modulation of CD4+ T cell responses by a tick saliva protein, Salp15 and polypeptides derived therefrom” (University of North Carolina at Charlotte, priority 2004, dated 2012).

Legend:
[1] = tested on: B cells and macrophages; test: Receptor capping in B cells and macrophages (anti-IgM, anti-CD16/CD32 cross-linking); assay type: cell-based, mouse; conditions: 50 μg/mL Salp15; anti-IgM and Fc engagement
Method: For receptor capping studies, mouse primary B and CD11^+ cells were purified by positive selection using biotin anti-mouse CD45R/B220 clone RA3-6B2 and biotin anti-mouse CD11b clone M1/70 (BD Biosciences Pharmingen) respectively, followed by incubation with magnetic microbeads. The cells were analyzed for receptor capping using 25 μg/mL anti-mouse IgM and 25 μg/mL anti-mouse CD16/CD32 respectively, cross-linked with 25 μg/mL of anti-rat IgG594 for 10 min in the presence or absence of 50 μg/mL of Salp15. CD4^+ and CD8^+ T cells were purified by negative selection and incubated with 10 μg/mL anti-CD3 and 1 μg/mL anti-CD28 cross-linked with 10 μg/mL of anti-hamster IgG488 for 10 min in the presence or absence of 50 μg/mL of Salp15.

[2] = tested on: splenic T cells from CD4-deficient mice and control T cells; test: IL-2 production by anti-CD3/CD28 stimulated T cells from CD4-deficient and B6 mice; assay type: cell-based, mouse; conditions: 50 μg/mL Salp15, 72 hrs
Method: T-cells from CD4-deficient and B6 mice (The Jackson Laboratory, Bar Harbor, Me., U.S.A.) were purified by negative selection and activated for 72 hrs using 5 μg/ml of plate bound anti-CD3 and 1 μg/ml of anti-CD28 in the presence or absence of 50 μg/mL of Salp15. DO11.10 transgenic mouse (The Jackson Laboratory) CD4^+ T cells were purified by negative selection as before and incubated in the presence of 106/mL of syngeneic mitomycin C-treated (50 μg/ml for 40 min at 37° C.) antigen presenting cells (APCs) with 10 μg/mL of ovalbumin in the presence of 0.5, 5.0 and 50 μg/mL of Salp15 for 72 hrs. The supernatants were then collected and IL-2 measured by capture ELISA following the manufacturer's instruction (BD Biosciences Pharmingen).

[3] = tested on: CD4+ T cells; test: Actin polymerization (phalloidin488 staining, F-actin immunoblot, flow cytometry) in activated CD4+ T cells; assay type: cell-based, mouse; conditions: Salp15 pretreatment; effect seen as early as 1 minute of activation
Method: For the visualization of lipid rafts, phospho-tyrosine, and cytoskeleton reorganization, CD4^+, CD8^+ or Jurkat cells were cytospun for 10 minutes at 1000 RPM onto positively charged microslides (Fisher Scientific, Hampton, N.H., U.S.A.). The cells were fixed with 3.7% paraformaldehyde (Sigma Chemical Co.) for 15 minutes and stained with CTB594 (Molecular Probes, Eugene, Oreg., U.S.A.), AlexaFluor488 labeled phalloidin (Molecular Probes) or (1:50) biotin-conjugated anti-p-Tyr (PY99) followed by Streptavidin-AlexaFluor594 (1:100, Molecular Probes). […]
Actin polymerization assay was performed as described earlier (Krishnan et al., 2004). […] The cells were washed, resuspended in PBS and analyzed for F-actin content on a FACSCalibur with CellQuest software (Beckton Dickinson, Mountain View, Calif., U.S.A.). […] The cells were washed twice with PBS and analyzed by flow cytometry.
The amount of F-actin in activated CD4+ T cells in the presence and absence of Salp15 was quantified by ultracentrifugation and Western blotting. […] Equal amounts of total protein were loaded on the SDS-gel based on the total actin determined from a sample of the cell lysate.

[4] = molecular target: T1, HIV gp120 binding to CD4 (Homo sapiens, UniProt P01730); test: gp120-HRP binding to plate-coated sCD4 (D1-D2); conditions: 0.05, 0.5 and 5 uM Salp15
T1 construct: coated with 0.05 uM sCD4 (D1-D2 domains)
Method: Ninety-six (96) well plates were coated with 0.05 uM sCD4 (D1-D2 domains) in coating buffer (pH 9.6). The plates were washed 2× and blocked with 200 uL of PBS+10% FCS. Samples were then added containing gp120-HRP plus 0, 0.05, 0.5 and 5 uM Salp15 in PBS+10% FCS. KLH was used as negative control at 5 uM. The plates were incubated for 2 hours at room temperature and washed 4×, followed by incubation with horseradish peroxidase substrate and stop solution from KPL.

Salp15: secreted salivary protein from Ixodes scapularis, SEQ ID NO: 2; recombinant His-tagged, produced in Drosophila S2 cells
Lipid raft reorganization (receptor capping) [1]: did not affect | Inhibition (immunosuppressive activity, IL-2) ([2]; T cells from CD4-negative mice): 33% | Inhibition (immunosuppressive activity, IL-2) ([2]; control T cells (B6 mice)): 85% | Phalloidin488 staining / amount of F-actin [3]: reduced | Inhibition of gp120 binding to CD4 [4]: concentration dependent inhibition
